Columns and labels:
RAW 264.7 cells [1] = experiment: Cytotoxicity test (MTT dye), RAW 264.7; assay type: cell-based, mouse
Description: (§1) Cell culture. NIH/3T3 (mouse embryo fibroblast, CCRC 60008) and RAW 264.7 (mouse monocyte/macrophage, CCRC 60001) cell lines were obtained from Culture Collection and Research Center (CCRC), Taiwan. Both cell lines were cultured in Dulbecco's modified essential medium (DMEM, GIBCO BRL, Rockville, MD) containing 1.5 g/L NaHCO3 supplemented with 10% fetal bovine serum (Hyclone, Logan, UT) and incubated in 5% CO2 at 37°C. Cell cultures were examined for mycoplasma contamination with the fluorescent stain Hoechst 33258 (Hay et al., ATCC Quality Control Methods for Cell Lines, American Type Culture Collection, Manassas, VA, 1992, pp 23-33). All cultures described in the present example were mycoplasma-free.
Collagen/chitin-coated wells. Two mixtures were prepared. A mixture of collagen type I (rat tail, Sigma, St. Louis, MO) was dissolved in 0.1 N acetic acid to produce a 1 mg/ml collagen solution. […]
Cytotoxicity test. […] Cytotoxicity was measured using the dye 3-(4,5-dimethylthiazol-2-yl)-2,5-diphenyl tetrazolium bromide (MTT; Merck Co., Germany) and following the methods described in Mosmann, J. Immunol. […]
The cytotoxicity associated with chitin and chitosan was evaluated for both mouse embryonic fibroblast NIH/3T3 cells and mouse monocyte-macrophage RAW 264.7 cells. […]

RAW 264.7 cells [2] = experiment: Measurement of NO production via nitrite detection (Griess reagents) in IFN-γ and LPS activated macrophages; assay type: cell-based, mouse; details: for effect on NO production (in words): activated RAW 264.7 cells
Description: as §1
Collagen/chitin-coated wells. Two mixtures were prepared. A mixture of collagen type I (rat tail, Sigma, St. Louis, MO) was dissolved in 0.1 N acetic acid to produce a 1 mg/ml collagen solution. Chitin was added to 0.1 N acetic acid until a 1 mg/ml mixture was achieved, and the mixture was sonicated for 3 minutes using a Labsonic U sonicator, (Braun Biotech International, Germany). After being autoclaved at 121°C for 15 minutes, the chitin mixture became a slurry of fine wires. Microtiter tissue culture plates (96-well) were rinsed with Dulbecco's phosphate-buffer saline without Ca^+2 and Mg^+2 (D-PBS, GIBCO BRL). Five microliters of collagen solution or different amounts of the chitin mixture were then added to each well. The plates were then air-dried in a laminar flow hood and stored at 4°C for up to a week.
Measurement of NO production via nitrite detection. Nitric oxide (NO) production was indirectly quantified by measuring the accumulation of nitrite (NO2^-) in the culture media using Griess reagents and sodium nitrite as a standard (Green et al., Anal. Biochem. 126:131-138, 1982; and Ignarro et al., Proc. Natl. Acad. Sci. USA 90:8103-8107, 1993). For nitrite assays, RAW 264.7 cells were subcultured in coated 96-well tissue culture plates at 1 x 10^5 cells/well and incubated for 24 hours. The culture media were changed to phenol red-free, serum-free DMEM containing 100 U/ml interferon-γ (IFN-γ, recombinant murine; GIBCO BRL) and 100 ng/ml lipopolysaccharide (LPS, Escherichia coli serotype O128:B12; Sigma). The samples were then tested as described in Rollo et al., J. Leukoc. Biol. 60:397-404, 1996.
To measure the effect of chitin on NO production, cells were subcultured directly in the chitin-coated 96-well tissue culture plates. After overnight incubation, cells became adhered to the bottom of chitin-coated wells. The culture media were removed and replaced with media supplemented with IFN-γ and LPS as described above. After 48 hours incubation, […] of culture supernatants were mixed sequentially with equal volumes of 60 mM sulfanilamide (Sigma) in 3 N HCl and 4 mM N-1-naphthylethylenediamine (Sigma) and then shaken for 5 minutes at room temperature as described in Rollo et al., supra. Nitrite concentration was measured by reading the sample's absorbance at 540 nm using a microplate reader (MRX, Dynex Technologies, Inc., VA).

[3] = 10 µg/ml in culture medium, activated RAW 264.7
[4] = Mus musculus, RAW264.7, 48 h, 10 µg/ml in culture medium, activated RAW 264.7, read-out: Nitrite Production as Percentage of Control
[5] = 2 µg/ml in culture medium, activated RAW 264.7
[6] = 10 µg/ml in culture medium, activated RAW 264.7, 2880 min

Row | Molecule | cytotoxicity (RAW 264.7 cells [1]) | Nitrite Production (RAW 264.7 cells [2]; [3]) | activity at 10 µg/mL (RAW 264.7 cells [2]; [4]) | Nitrite Production (RAW 264.7 cells [2]; [5]) | Nitrite Production as Percentage of Control (RAW 264.7 cells [2]; [5]) | Nitrite Production as Percentage of Control (RAW 264.7 cells [2]; [6]) | effect on NO production (in words) (RAW 264.7 cells [2]) | activity at 2 µg/mL (RAW 264.7 cells [2]; Mus musculus, RAW264.7, 48 h, 2 µg/ml in culture medium, activated RAW 264.7, read-out: Nitrite Production as Percentage of Control)
1 | N[C@H]1C(O)O[C@H](CO)[C@@H](O)[C@@H]1O (stereo partly shown) [glucoseamine, glucosamine, reference compound] | not cytotoxic | 64.3 ± 0.8 µM | 98% |  |  |  |  | 
2 | chitohexose |  | 35.8 ± 2.9 µM |  | 41.3 ± 0.8 µM | 63 Percentage of Control | 54.5 Percentage of Control | did substantially decrease NO production | 
3 | chitotetraose |  | 61.3 ± 0.6 µM |  | 63.4 ± 0.5 µM | 96.6 Percentage of Control | 93.4 Percentage of Control |  | 
4 | CC(=O)N[C@H]1[C@H](O[C@H]2[C@H](O)[C@@H](NC(C)=O)C(O)O[C@@H]2CO)O[C@H](CO)[C@@H](O)[C@@H]1O (stereo partly drawn) [chitobiose, 2-acetamido-2-deoxy-4-O-(2-acetamido-2-deoxy-b-D-glucopyranosyl)-D-glucopyranose] |  | 64.1 ± 0.9 µM | 97.7% | 64.9 ± 0.8 µM |  |  |  | 98.9%
5 | chitopentose |  | 42.7 ± 1.2 µM |  | 47.0 ± 0.5 µM | 70.6 Percentage of Control | 65.1 Percentage of Control | did substantially decrease NO production | 
6 | chitotriose |  | 61.1 ± 0.2 µM |  | 61.5 ± 0.9 µM | 93.8 Percentage of Control | 93.1 Percentage of Control |  | 
7 | CC(=O)N[C@H]1C(O)O[C@H](CO)[C@@H](O)[C@@H]1O (stereo partly shown) [NAGA, N-acetylglucosamine, reference compound] | not cytotoxic | 66.7 ± 0.9 µM | 102% |  |  |  |  | 

Source: patent publication EP1127574A1, “Use of chitinous materials for inhibiting cellular nitric oxide production” (Food Industry Research and Development Institute, priority 2000, dated 2001)
